# Reference: US8946302B2, “Selective sigma-1 receptor ligands” (Wisconsin Alumni Research Foundation, priority 2008, dated 2015)
# Assays:
# sigma-1 receptor [1] = molecular target: T1, sigma-1 receptor (Rattus norvegicus, UniProt Q9R0C9); assay: Protection of [125I]-IACoc photolabeling in rat liver membranes; type: binding
# T1 construct: from tissue; host or cells: rat liver membranes
# Procedure: (§4) Rat liver membranes (100 μg/lane) were suspended in the presence or absence of the protecting drugs. […] Percent band intensities are shown compared to controls performed in the absence of protecting ligand (−).
# sigma-1 receptor [2] = molecular target: T1, sigma-1 receptor; assay: Protection of [125I]IAF photolabeling of the sigma-1 receptor in rat liver membranes; type: binding
# Procedure: as §4
# [3] = system: human cardiac Na+ channel hNav1.5; assay: Patch clamp INa in HEK293 cells stably expressing hNav1.5; type: cell-based; details: 100 μM, n=3
# Procedure: (§1) To evaluate the capacity of DMT to induce physiological responses by binding to sigma receptors, the action of DMT on voltage-activated Na^+ current was examined. […] Application of 100 μM DMT inhibited INa by 62±3% (n=3), which reversed upon DMT removal. With hNav1.5 transiently transfected into COS-7 cells, 100 μM DMT inhibited INa by only 22±4% (n=3), but photolabeling has shown that these cells have much lower levels of endogenous sigma-1 receptor compared to HEK293 cells (26) (FIG. 7b).
# (§2) HEK293 cells stably expressing hNav1.5 were provided by Dr. J. C. Makielski at the University of Wisconsin-Madison (32). COS-7 cells were transiently transfected with recombinant cDNA encoding hNav1.5 using Lipofectamine. Both cell types were cultured on glass coverslips at 37° C. in 5% CO2/air atmosphere, and used for electrophysiological recordings within 3-5 days.
# (§3) INa was recorded using whole-cell patch clamp at room temperature. All patch clamp solutions used as well as patch clamp methodology and instrumentation details are previously described (26) with the exception of testing INa inhibition with 100 μM DMT.
# hNav1.5 = assay: Patch clamp INa in COS-7 cells transiently transfected with hNav1.5; type: cell-based, human; details: 100 μM, n=3
# Procedure: as §1, §2, §3
# [4] = system: INa in neonatal mouse cardiac myocytes; assay: Patch clamp INa in neonatal cardiac myocytes from WT and sigma-1 receptor KO mice; type: cell-based; details: n=7
# Procedure: Neonatal mouse cardiac myocytes were enzymatically isolated and cultured on laminin-coated glass coverslips as previously described (33, 34) with minor changes (26).
# as §3
# [5] = system: WT and sigma-1 receptor knockout mice; assay: Open-field hypermobility assay in WT and sigma-1 receptor KO mice; type: in vivo, mouse; details: 2 mg/kg i.p. two hours after pargyline 75 mg/kg i.p.
# Procedure: All mice were maintained on a normal light/dark cycle and handled in accordance with Animal Care and Use Guidelines of the University of Wisconsin, Madison. […] Mice were first acclimatized to the experimental room for one hour. WT and KO mice were injected with the monoamine oxidase inhibitor, pargyline (75 mg/kg, i.p.) two hours prior to DMT or vehicle injection(28). […] Each condition represents 8 to 14 mice (n=8-14). […] A computer program was used to quantitate movement and after each experiment, 70% ethanol was used to remove odors from the open-field.
# sigma-1 receptor [6] = molecular target: sigma-1 receptor (Cavia porcellus, UniProt Q60492); assay: Affinity for the sigma-1 receptor (Table 3); type: binding; parameters: from tissue
# Sequence of sigma-1 receptor (Cavia porcellus, UniProt Q60492) (Q60492 whole entry): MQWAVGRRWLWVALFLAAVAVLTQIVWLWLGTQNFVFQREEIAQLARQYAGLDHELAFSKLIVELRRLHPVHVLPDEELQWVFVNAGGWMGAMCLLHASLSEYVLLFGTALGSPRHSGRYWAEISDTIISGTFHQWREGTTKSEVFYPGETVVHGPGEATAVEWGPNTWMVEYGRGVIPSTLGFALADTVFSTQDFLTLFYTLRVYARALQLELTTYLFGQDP
# T1 sequence (Q9R0C9 whole entry): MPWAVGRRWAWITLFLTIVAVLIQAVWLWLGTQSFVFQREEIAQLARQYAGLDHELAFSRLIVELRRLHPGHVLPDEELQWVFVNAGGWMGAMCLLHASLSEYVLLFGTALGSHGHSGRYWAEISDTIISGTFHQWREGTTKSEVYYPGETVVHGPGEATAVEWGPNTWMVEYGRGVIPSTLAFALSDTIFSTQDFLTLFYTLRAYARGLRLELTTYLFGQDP
smiles,measurement,setting,value
"CN(C)CCc1c[nH]c2ccccc12 [DMT, 2-(1H-indol-3-yl)-N,N-dimethylethylamine]",protection of [125I]-IACoc photolabeling of the 26 kDa sigma-1 receptor,sigma-1 receptor [1]; 50 μM,61%
same,protection of [125I]-IACoc photolabeling of the 26 kDa sigma-1 receptor,sigma-1 receptor [1]; 100 μM,~100%
same,protection of [125I]IAF photolabeling of the sigma-1 receptor,sigma-1 receptor [2]; 10 μM,31%
same,protection of [125I]IAF photolabeling of the sigma-1 receptor,sigma-1 receptor [2]; 50 μM,43%
same,protection of [125I]IAF photolabeling of the sigma-1 receptor,sigma-1 receptor [2]; 100 μM,69%
same,inhibition of INa,[3],62±3%
same,inhibition of INa,hNav1.5,22±4%
same,inhibition at 100 µM,[4]; KO myocytes,7 ± 2%
same,inhibition at 100 µM,[4]; WT neonatal cardiac myocytes,29 ± 3%
same,distance traveled in open-field assay (hypermobility),[5]; WT mice,7025±524.1 cm
same,distance traveled in open-field assay (hypermobility),[5]; sigma-1 receptor KO mice,2328±322.9 cm
same,Kd,sigma-1 receptor [6],14.6 µM
